{"source": "patent EP2123285A1", "about": "“Nucleosidic phosphoantigens for use in VGAMMA9DELTA2 T cell-mediated therapy” (INSERM (Institut National de la Santé et de la Recherche …, priority 2008, dated 2009)", "key": {"[1]": {"tested_on": "polyclonal Vγ9Vδ2 T cell line", "test": "Degranulation assay (CD107a) with tumor cell lines as presenting or pulsed cells", "assay_type": "cell-based, human", "conditions": "for stimulatory activity of pulsed 721.221 cells: 721.221 cell line; for sensitivity of stimulation by pulsed cells to apyrase and pyrophosphatase: Daudi or K562 cells pulsed overnight (pamidronate 50µM, ApppI 20µM), apyrase 0.2U/mL, NPP 0.02U/mL, alone or in combination; for pulsing of RPMI-8226 cells: 2h, 10µM"}, "apyrase": {"biological_target": "T1, apyrase (Solanum tuberosum, UniProt P80595)", "T1 sequence (P80595 1-454)": "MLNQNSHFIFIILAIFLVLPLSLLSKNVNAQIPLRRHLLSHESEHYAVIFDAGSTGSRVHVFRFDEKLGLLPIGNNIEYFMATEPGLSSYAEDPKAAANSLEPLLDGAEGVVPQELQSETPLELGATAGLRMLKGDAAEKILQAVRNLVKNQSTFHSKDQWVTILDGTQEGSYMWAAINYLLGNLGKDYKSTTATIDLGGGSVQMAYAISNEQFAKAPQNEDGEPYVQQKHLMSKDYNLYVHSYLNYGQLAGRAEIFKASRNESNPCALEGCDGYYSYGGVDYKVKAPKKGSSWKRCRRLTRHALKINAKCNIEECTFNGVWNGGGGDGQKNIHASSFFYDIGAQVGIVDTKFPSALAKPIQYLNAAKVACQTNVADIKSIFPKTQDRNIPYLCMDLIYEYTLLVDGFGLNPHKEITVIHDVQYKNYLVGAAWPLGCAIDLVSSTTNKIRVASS", "test": "HPLC analysis of sensitivity to apyrase", "assay_type": "in vitro ADME", "conditions": "100µM, 0.2U/mL apyrase, 1h at 37°C in RPMI", "description": "Reaction mixes containing nucleosidic compounds were adjusted to 200µL with water and products were separated by HPLC (System Gold, Beckman Coulter) on a PL-SAX anion exchange column (1000Å, 5µm, 50x4.6mm from Polymer Labs Varian, Marseille, France) using water (A) and 1M (NH4)2HPO4, pH 3.5 (B) and the following elution gradient: 0-1 min: 0% B; 1-11 min: 0% to 30% B; 11-13 min: 100% B; 13-19min: 0% B. Eluted nucleotides were detected by monitoring UV absorbance at 260nm. In these conditions, adenosine and AMP are not retained on the column and are detected with the elution front. To evaluate phosphatase sensitivity, ApppI and ATP (100µM final concentration) were incubated for 1h at 37°C in 20µL RPMI in the presence of 0.2U/mL apyrase or 0.02U/mL nucleotide pyrophosphatase before analysis."}, "Vγ9Vδ2 T cells [2]": {"tested_on": "Vγ9Vδ2 T cells", "test": "Single cell analysis of calcium mobilization", "assay_type": "cell-based, human", "conditions": "ApppI-loaded, F1-coated beads"}, "[3]": {"biological_target": "T2, F1-ATPase purified from bovine heart mitochondria (Bos taurus, UniProt P00829+P19483)", "T2 construct": "F1-ATPase purified from bovine heart mitochondria; from tissue; host or cells: bovine heart mitochondria", "test": "F1-ATPase activity, kinetics of ADP production (lactate dehydrogenase/pyruvate kinase assay)", "assay_type": "biochemical", "conditions": "100 µM ApppI, low ATP concentrations", "description": "(§1) F1-ATPase complexes were recovered from ammonium sulfate precipitates by centrifugation (17000g, 3min) and dissolved in ATPase assay buffer (10mM HEPES, 150mM NaCl, 5mM KCl, 2mM MgCl2, pH 7.5). ATP and ADP were measured using two different assays. For ATP measurements, a bioluminescence assay was used: 100ng F1-ATPase were incubated at room temperature in 50µL of ATPase assay buffer containing 1µM ATP and the indicated apyrase-treated ApppI concentrations in white 96 wells plates. After 5 minutes, 30µL of reconstituted luciferase from the ATP CLSII Kit (Roche) were added and luminescence was acquired on an Orion luminometer (Berthold Detection Systems). The kinetics of ADP production resulting from ATP hydrolysis was measured using the lactate dehydrogenase/pyruvate kinase assay and was adapted from Gledhill, J.R. et al., Biochem J 386, 591-598, 2005: 2µg F1-ATPase were incubated in 200µL of ATPase assay buffer supplemented with phosphoenol pyruvate (500µM), NADH (250µM), lactate dehydrogenase (LDH, 1U) and pyruvate kinase (PK, 5U), with the indicated ATP concentrations and with or without 100µM apyrase-treated ApppI. OD340nm was measured during 2 minutes (with one measurement every 10 seconds) on a Varioskan Flash spectrophotometer (Thermo Electron Corporation). The initial hydrolysis rate (V0) was calculated from a linear regression of the data. […]"}, "[4]": {"biological_target": "nucleotide pyrophosphatase (Crotalus adamanteus, UniProt J3SEZ3)"}, "Vγ9Vδ2 T cells [5]": {"tested_on": "Vγ9Vδ2 T cells", "test": "Intracellular cytokine staining (IFNγ)", "assay_type": "cell-based, human"}, "[6]": {"tested_on": "polyclonal Vγ9Vδ2 T cell line", "test": "Degranulation assay for cytolytic function (CD107a), direct stimulation with soluble antigens", "assay_type": "cell-based, human", "conditions": "for surface expression of CD107a (cytotoxicity machinery): soluble antigen, no enzyme added", "description": "(§2) Brefeldin A was omitted. […] Cells were washed twice in FACS medium and stained for TCR-Vδ2. Data were acquired and analyzed as for proliferation assay. Results are expressed as the mean of triplicate microwell cultures +/-S.E.M."}, "[7]": {"biological_target": "T2, F1-ATPase purified from bovine heart mitochondria", "test": "F1-ATPase activity, ATP bioluminescence assay", "assay_type": "biochemical", "conditions": "1µM ATP, 5min, ApppI added in the reaction mixture", "description": "as §1"}, "[8]": {"biological_target": "T3, bovine F1-ATPase (in the form of F1Fo complexes) (Bos taurus, UniProt P00829+P19483)", "T3 construct": "from tissue", "test": "Pulsing on F1Fo-coated beads and subsequent T cell activation (CD107a)", "assay_type": "binding", "description": "as §2\nFor immobilization on beads, solubilized F1Fo complexes were diluted to 1/3000 (5µg/mL) in 1 ml of PBS and incubated with 10^7 6µm polystyrene beads (Biovalley, Marne-la-Vallée, France) for 4h at room temperature on a rotating wheel. Beads were then pelleted by centrifugation (2min, 12000g), washed and incubated in 1mL of 1% BSA in PBS overnight, washed once with PBS and kept for several days at 4°C in PBS containing 1% BSA. Beads were used in stimulation assays as cultured cell lines. Control beads were prepared similarly except that F1Fo was replaced by BSA. In some experiments the beads were loaded with phosphoantigens: to this end, after washing a suitable aliquot, beads were incubated with ApppI or IPP (50µM) for 2 hours at 37°C in complete SFM medium, washed extensively, and used for Vγ9Vδ2 T cells stimulation. In phosphatase sensitivity assays (Fig.8) NPP or control medium were added to the beads in microculture wells 30min before pulsing the beads or addition of T cells. The beads were then washed and T cells were added with or without supplementation with the same phosphatases. T cell activation was evaluated as described above."}, "Vγ9Vδ2 T cells [9]": {"tested_on": "Vγ9Vδ2 T cells", "test": "Proliferation assay: Vγ9Vδ2 T cell expansion from PBL stimulated with phosphoantigen plus IL-2", "assay_type": "cell-based, human"}}, "note": "Entries after “also recorded” stand apart in the source; their conditions may differ. Where two headings read alike, the source gives them in different places.", "data": [{"smiles": "NCCC(O)(P(=O)(O)O)P(=O)(O)O", "note": "[pamidronate, reference compound]", "values": [{"measurement": "stimulatory activity of pulsed 721.221 cells", "setting": "[1]", "result": "poorly stimulatory"}, {"measurement": "sensitivity of stimulation by pulsed cells to apyrase and pyrophosphatase", "setting": "[1]", "result": "completely resistant"}]}, {"smiles": "Nc1ncnc2c1ncn2[C@@H]1O[C@H](COP(=O)(O)OP(=O)(O)OP(=O)(O)O)[C@@H](O)[C@H]1O", "note": "[ATP, reference compound]", "values": [{"measurement": "HPLC profile after apyrase treatment", "setting": "apyrase", "result": "completely hydrolyzed"}]}, {"smiles": "C=C(C)CCOP(=O)(O)OP(=O)(O)OP(=O)(O)OC[C@H]1O[C@@H](n2cnc3c(N)ncnc32)[C@H](O)[C@@H]1O", "note": "[ApppI, 1-(adenosin-5'-yl) 3-(3-methylbut-3-enyl) triphosphoric diester]", "values": [{"measurement": "intracellular calcium mobilization", "setting": "Vγ9Vδ2 T cells [2]; NPP 0.02U/mL added after contact", "result": "slow but strong and sustained calcium response"}, {"measurement": "intracellular calcium mobilization", "setting": "Vγ9Vδ2 T cells [2]; no NPP", "result": "clear activation in few cells only"}, {"measurement": "initial rate of ADP production relative to the rate in the absence of ApppI", "setting": "[3]", "result": "approximately twice"}, {"measurement": "stimulatory activity of pulsed 721.221 cells", "setting": "[1]", "result": "cannot be significantly pulsed; also recorded: poorly stimulatory"}, {"measurement": "pulsing of RPMI-8226 cells", "setting": "[1]; 4°C", "result": "abrogated"}, {"measurement": "pulsing of RPMI-8226 cells", "setting": "[1]; 37°C", "result": "sufficient to confer stable stimulatory activity"}, {"measurement": "pulsing of RPMI-8226 cells", "setting": "[1]; 37°C after 2h pre-treatment with cytochalasin D (10µM)", "result": "abrogated"}, {"measurement": "sensitivity of stimulation by pulsed cells to apyrase and pyrophosphatase", "setting": "[1]", "result": "completely resistant"}, {"measurement": "stimulation by combination of RPMI-8226 cells and phosphoantigen", "setting": "[1]; RPMI-8226 cells 1:1 ratio plus soluble antigen", "result": "synergistic activation"}, {"measurement": "stimulatory activity retained on pulsed tumor cells after extensive washing", "setting": "[1]; tumor cell lines pulsed overnight, compared to tumor cells not washed", "result": 70, "unit": "%"}, {"measurement": "hydrolysis by NPP (HPLC)", "setting": "[4]", "result": "can be hydrolyzed"}, {"measurement": "effect of ApppI added to IPP on the IPP response", "setting": "Vγ9Vδ2 T cells [5]; IPP (10µM) plus ApppI at varying concentrations", "result": "does not compete with IPP"}, {"measurement": "induction of intracellular IFN-γ production", "setting": "Vγ9Vδ2 T cells [5]; PBL stimulation", "result": "could induce"}, {"measurement": "higher concentration required for a similar cytokine response", "setting": "Vγ9Vδ2 T cells [5]; relative to IPP, intracellular IFNγ", "result": "50-100 fold"}, {"measurement": "effect of exogenous NPP on stimulatory activity", "setting": "[6]; NPP 0.02U/mL added to the T cell stimulation assay", "result": "greatly increased"}, {"measurement": "effect of apyrase on stimulatory activity", "setting": "[6]; apyrase 0.2U/mL, antigen 10µM", "result": "abrogates completely"}, {"measurement": "surface expression of CD107a (cytotoxicity machinery)", "setting": "[6]", "result": "less bioactive than IPP itself"}, {"measurement": "increase of the amount of ATP hydrolyzed by the complex", "setting": "[7]", "result": "two-fold"}, {"measurement": "stimulatory activity of loaded F1-ATPase-coated beads", "setting": "[8]; ApppI treated with NPP before pulsing on beads", "result": "no activity is retained"}, {"measurement": "stimulatory activity of loaded F1-ATPase-coated beads", "setting": "[8]; NPP 0.02U/mL added in the T cell stimulation assay", "result": "a strong stimulatory activity can be revealed"}, {"measurement": "stimulatory activity of loaded F1-ATPase-coated beads", "setting": "[8]; beads incubated with 50µM antigen for 2h, washed, no NPP", "result": "confers some additional stimulatory activity"}, {"measurement": "stimulatory activity of loaded F1-ATPase-coated beads", "setting": "[8]; beads treated with NPP after pulsing, then washed", "result": "retain an activity identical to that of beads which have not been treated with NPP"}, {"measurement": "homogeneity of the culture (Vγ9Vδ2 T cells)", "setting": "Vγ9Vδ2 T cells [9]; 5 µM", "result": "~94", "unit": "%"}, {"measurement": "induction of proliferation", "setting": "Vγ9Vδ2 T cells [9]; PBL stimulation", "result": "could induce"}, {"measurement": "higher molar concentration required for a similar effect on Vγ9Vδ2 T cell expansion from PBLs", "setting": "Vγ9Vδ2 T cells [9]; relative to IPP, 1 week after PBL stimulation", "result": "5-10 fold"}, {"measurement": "HPLC profile after apyrase treatment", "setting": "apyrase", "result": "did not change its HPLC profile"}]}, {"smiles": "CC[C@H](C)C(=O)O[C@H]1C[C@@H](C)C=C2C=C[C@H](C)[C@H](CC[C@@H]3C[C@@H](O)CC(=O)O3)[C@H]21", "note": "[lovastatin, reference compound]", "values": [{"measurement": "effect on stimulatory activity induced by pulsing with ApppI", "setting": "[1]; K562 cells, lovastatin 20µM, ApppI 20µM, overnight", "result": "does not inhibit"}, {"measurement": "effect on stimulatory activity induced by pamidronate", "setting": "[1]; K562 cells, lovastatin 20µM, pamidronate 50µM, overnight", "result": "efficiently abrogates"}]}, {"smiles": "Cc1nc(N=Nc2ccc(S(=O)(=O)O)cc2S(=O)(=O)O)c(COP(=O)(O)O)c(C=O)c1O", "note": "[PPADS, pyridoxal phosphate-6-azophenyl-2',4'-disulfonic acid]", "values": [{"measurement": "effect on ApppI stimulatory activity", "setting": "[6]; PPADS added to ApppI stimulation", "result": "inhibition"}, {"measurement": "effect on IPP stimulatory activity", "setting": "[6]; PPADS added to IPP stimulation", "result": "partially decreases"}]}, {"smiles": "C=C(C)CCO[P@@](=O)(O)OP(=O)(O)O", "note": "[IPP, isopentenyl pyrophosphate, reference compound]", "values": [{"measurement": "stimulatory activity retained on pulsed tumor cells after extensive washing", "setting": "[1]", "result": "less than 20%"}, {"measurement": "surface expression of CD107a (cytotoxicity machinery)", "setting": "[6]", "result": "stronger stimulation"}]}, {"smiles": "Nc1ncnc2c1ncn2[C@@H]1O[C@H](COP(=O)(O)OP(=O)(O)O)[C@@H](O)[C@H]1O", "note": "[ADP]", "values": [{"measurement": "effect on T cell stimulations", "setting": "[6]; data not shown", "result": "no effect"}]}]}
